Experimental data: patent US20110028401A1, “CRIPTO BLOCKING MOLECULES AND THERAPEUTIC USES THEREOF” (CONSIGLIO NAZIONALE DELLE RICERCHE, priority 2009, published 2011)

Assays:
[1] = test system: Mouse ESC; assay: In vitro dopamine and DOPAC levels by HPLC after KCl; assay type: cell-based; conditions: 14 days in vitro
Experimental: Dopamine release and turnover was determined in vitro using reverse phase high performance liquid chromatography (HPLC). Mouse ESC were differentiated in a 12 well plate according to the methodology depicted in FIG. 7(a), in the presence of either the Control peptide of Cripto BP. After 14 days in vitro, media was replaced with 200 ul of N2 media supplemented with 56 mM KCl for 30 min. The media was then collected and stabilized with 20 ul of buffer containing 0.4 M perchloric acid containing 7.9 mM sodium metabisulphate and 1.34 mM disodium EDTA. On the day of analysis the samples were centrifuged and the supernatant transferred to HPLC vials and placed in an autosampler for injection onto the HPLC. The HPLC consisted of a LC-20AT pump (Shimadzu), SIL-20A Autosampler (Shimadzu) and C18 reverse phase column (Bio-Rad, Hercules, USA). Detection was via a 3 mm VT-03 flow cell with glassy carbon working electrode (Antec Leyden) and Decade II Electrochemical Detector (Antec Leyden). The mobile phase consisted of 17% v/v methanol in purified deionized water containing 70 mM KH2PO4, 0.5 mM EDTA and 8.0 mM sulfonic acid, pH 3.0 and was run at a flow rate of 0.5 ml/min. DA turnover was expressed as the concentration of DOPAC to DA [DOPAC/DA]. Analysis was performed on triplicate wells on three independent differentiation experiments.

[2] = test system: wild-type EBs; assay: Neuronal differentiation of wild-type EBs, βIII-tubulin immunofluorescence grades; assay type: cell-based, mouse; conditions: 25 μM peptide, 13 day-old EBs, mean±SD
Experimental: Undifferentiated ESCs were cultured as previously described^55.
Immunofluorescence analysis on adherent EBs, dopaminergic differentiated ESC and striatal grafts were performed as previously described^29, 35. The following primary antibodies were used: mouse anti-βIII-tubulin (Tuj1, 1:1000, Promega); anti-βIII tubulin (Sigma; 1:400), rabbit anti-tyrosine hydroxylase (TH, 1:200, PelFreez); mouse anti-TH (1:500, Chemicon); Nurr-1 (1:250, Santa Cruz); rabbit anti-Pitx3 (1:200, InVitrogen), rabbit anti-GIRK-2 (1:100, Chemicon); rat anti-DAT (1:1000, Chemicon); rabbit anti-5HT (1:200, Biogenesis); rabbit anti-NET (1:20, Chemicon), rabbit anti-GABA (1:500, Sigma); rabbit anti-Ki67 (1:1000, Neomarkers); and rat anti-Nestin (1:100, Developmental Studies Hybridoma Bank). Appropriate fluorophore conjugated secondary antibodies were used for visualization: (Cyanin-2, Cy3 and Cy5, 1:500, Jackson ImmunoResearch or Alexa-488, Alexa-594 and Alexa-633, 1:200, Molecular Probes).
Thus, if specific and effective, Cripto BP should be able to re-direct ESC fate and promote neural induction and neurogenesis. To address this issue, 2 day-old wild-type EBs were treated as described above, with either control (CP), dimeric (DP) or blocking (BP) peptides and both morphological and immunofluorescence analysis were performed on 13 day-old EBs. […]

[3] = test system: Parkinsonian rats; assay: TH-ir neuron counts within striatal grafts; assay type: in vivo, rat; conditions: tumor-free animals
Experimental: Two days prior to grafting animals began cyclosporine-A immune suppression (10 mg/kg). Fourteen days post-lesioning selected animals (determined by behavioural rotations) were again anesthetized and stereotaxically injected with 1 μl of cell suspension at each of the 4 sites as previously described^29. Stereotaxic coordinates of 1st & 2nd Injection (from bregma): anterior 0.2 mm, lateral 3.0 mm, ventral 4.5 and 5.0 mm; 3rd & 4th Injection, anterior 1.0 mm, lateral 2.5 mm, ventral 4.5 and 5.0 mm; incisor bar 0 mm^57). ESCs were differentiated as outlined in FIG. 7a. In brief, ESC colonies were dissected away from the stromal feeder layer and dissociated using collagenase/dispase with agitation (700 μg/ml, Roche, for 20 min, 80 rpm). Cells were subsequently resuspended at a density of 3,000 cells/μl ready for grafting. Five rats received Sham injections (4 μl N2 media, 1 μl/site), 16 rats received a total of 12,000 ESCs (4×1 μl grafts) pre-treated with the Control peptide (of which 9 of these animals also received infusion of the Control peptide) and a further 16 rats received grafts pretreated with the Cripto blocking peptide (9 animals receiving infusion of the Cripto BP).
The peptide infusion was performed by implantation of a cannula into the striatum (Alzet brain infusion kit) connected to a subcutaneously placed osmotic minipump (Alzet) prefilled with either CP or Cripto BP. […]

[4] = 56 mM KCl 30 min, compared to Control peptide

C[S+]([O-])CCC(N)C(=O)N[C@@H](CSCc1ccccc1)C(=O)N[C@@H](CSCc1ccccc1)C(=O)N[C@@H](CCCCNC(=O)[C@H](CSCc1ccccc1)NC(=O)[C@H](CSCc1ccccc1)NC(=O)[C@@H](N)CC[S+](C)[O-])C(=O)N[C@@H](CCCCNC(=O)[C@H](CCCCNC(=O)[C@H](CSCc1ccccc1)NC(=O)[C@H](CSCc1ccccc1)NC(=O)[C@@H](N)CC[S+](C)[O-])NC(=O)[C@H](CSCc1ccccc1)NC(=O)[C@H](CSCc1ccccc1)NC(=O)[C@@H](N)CC[S+](C)[O-])C(=O)NCC(=O)O (stereo partly shown) [Cripto BP]
KCl-evoked release of DOPAC [1, 4]: significantly increases
KCl-evoked release of dopamine [1, 4]: significantly increases
dopamine turnover (ratio of DOPAC to DA) [1]: able to utilize DA
EBs with Grade 0 phenotype (absence of neurons) [2]: 17.4%±1.15
EBs with Grade 3 phenotype (full neuronal differentiation) [2]: 45.6%±5.2
TH+ cell counts within the graft ([3]; pre-treated ESCs + peptide infusion): 10815±887
TH+ cells within the graft ([3]; pre-treated ESCs without infusion): 7491±1488
